Test results reported in patent US20230348473A1, “SUBSTITUTED PYRIDINES AS PARP1 INHIBITORS” (Xinthera, Inc., priority 2022, published 2023).

How the values were obtained:
PARP2 = PARP2 (Homo sapiens (Human), UniProt Q9UGN5); assay: Biochemical fluorescence polarization (FP) assay, PARPi-FL displacement, PARP2; format: binding; conditions: 20 nM protein, 3 nM PARPi-FL, 4 h
Method: (§1) To characterize our compounds, we utilized an assay measuring the displacement of a commercially available fluorescently labeled PARP 1/2 inhibitor (PARPi-FL, Tocris Biosciences, #6461) as exemplified in assays performed in WO2014/064149 and WO2021/013735A1. The assay was performed utilizing the following method: Compounds were dissolved in DMSO an Echo550 liquid handler was utilized to make serial dilations in the desired concentration range in Optiplate-384F plates. 100% DMSO was used for the high (with protein) and low (without protein) control samples. 20 nL of compound or DMSO alone was added to individual assay plate wells. […] The PARPi-FL was then added at a final concentration of 3 nM. The assay plate is centrifuged at 1000 rpm for 1 min and incubated for 4 h at room temperature. […] XLFit (equation 201) is used to calculate a reported IC50 for each compound.

PARP1 = PARP1 (Homo sapiens (Human), UniProt P09874); assay: Biochemical fluorescence polarization (FP) assay, PARPi-FL displacement, PARP1; format: binding; conditions: 20 nM protein, 3 nM PARPi-FL, 4 h
Method: as §1

[1] = Caco-2 bidirectional permeability; format: in vitro ADME; conditions: human; for Papp A→B at 2 h, 5 μM: apical-to-basolateral, read-out: Caco-2 AB; for Papp B→A at 2 h, 5 μM: basolateral-to-apical, read-out: Caco-2 BA; for efflux ratio at 2 h, 5 μM: efflux ratio Papp (B-to-A)/Papp (A-to-B)
Method: Following a 1-hr. equilibration period in cell culture medium maintained at 37° C. in an incubator containing a 5% CO2 atmosphere at 95% relative humidity, Corning 96-well HTS Transwell® permeable support plates were seeded with 34,300 Caco-2 cells (ATCC) per well. Following seeding, plates were cultured for 14-18 days with cell culture medium replacement every other day beginning no later than 24 hr. after plating. Monolayer barrier integrity was monitored during the culture period using transepithelial electrical resistance (TEER) measurements taken with a Millicell Epithelial Volt-Ohm system. Caco-2 monolayers were considered ready for use when the TEER value >230 ohm·cm^2. Working stocks of individual test articles were prepared at a concentration of 5 μM by diluting 1 mM stocks prepared in DMSO into 10 mM HEPES. Prior to conducting the assay, Caco-2 plates were washed twice with prewarmed 10 mM HEPES and then equilibrated in 10 mM HEPES for 30 min. at 37° C. Following equilibration, test article flux was tested bidirectionally (in both the apical-to-basolateral and basolateral-to-apical directions) by adding test article working stocks to either the apical or basolateral chambers. Blank 10 mM HEPES was added to the opposite sides. Plates were then incubated at 37° C. for 2 hours. At the end of the incubation, aliquots from both sides of each monolayer were quenched with 4 volumes of ACN containing internal standards. Following a centrifugation step, supernatants were diluted with pure water prior to analysis via LC-MS/MS.
Apparent permeability (Papp, ×10^−6 cm/s) was calculated for all transport assays using the following equation: […]
Where: Papp is apparent permeability (×10^−6 cm/s). • dQ/dt is the rate of drug transport (pmol/s). • A is the surface area of the membrane (cm^2). • D0 is the initial donor concentration (nM; pmol/cm^3).
Efflux ratio was determined by calculating the ratio of the Papp in the basolateral-to-apical direction to the Papp in the apical-to-basolateral direction using the following equation: […]
Where: Papp (B-to-A) is the apparent permeability in the basolateral-to-apical direction. • Papp (A-to-B) is the apparent permeability in the apical-to-basolateral direction.

[2] = HLM metabolic stability, predicted human hepatic clearance; format: in vitro ADME; conditions: well-stirred model, 1 μM
Method: Working stocks of individual test articles were prepared at a concentration of 100 μM by diluting 10 mM stocks prepared in DMSO 100-fold (v:v) into ACN. Thawed hepatic microsomes were suspended in 100 mM potassium phosphate buffer, pH 7.4 to a microsomal protein concentration of 0.562 mg/mL. Diluted microsomes were combined with a solution of 10 mM NADPH, and the mixture was pre-warmed to 37° C. for 8 min. Reactions were initiated by addition of the test article working stocks to achieve a final test article concentration of 1 μM. Final microsomal protein and NADPH concentrations were 0.5 mg/mL and 1 mM, respectively. Incubations containing NADPH were run in duplicate. Test article losses mediated by non-CYP mechanisms were evaluated in a parallel set of incubations run in the absence of NADPH. Incubations lacking NADPH consisted of 1 replicate per test article. Following incubation in a 37° C. water bath, aliquots of individual reactions were quenched with cold ACN containing internal standards at […], 15-, 30-, 60-, 90-, and 120-min. Precipitated protein was pelleted via refrigerated centrifugation. Supernatants were diluted into an equal volume of pure water and mixed well prior to analysis via LC-MS/MS. In vitro intrinsic clearances (CLint) in μL/min/mg were determined for each incubation from calculated in vitro half-lives determined using a standard log-linear regression approach. In vitro CLint values were scaled up using the following physiological scaling factors: 40 mg microsomal protein/g human liver and 25.7 g human liver/kg body weight.

[3] = hHEP metabolic stability, predicted human hepatic clearance; format: in vitro ADME; conditions: well-stirred model, 1 μM
Method: Working stocks of individual test articles were prepared at concentrations of 100 μM by diluting 10 mM stocks prepared in DMSO 100-fold (v:v) into ACN/H2O (50/50, v:v). Human cryopreserved hepatocytes were thawed in a 37° C. water bath in <2 min., suspended in thawing media, and then centrifuged at 100×g for 10 min. Thawing media was aspirated, and pelleted hepatocytes were resuspended into incubation media at 1.5×10^6 cells/mL. Cell viability was determined using an Acridine Orange/Propidium Iodine stain, and hepatocytes were further diluted with incubation media to 0.5×10^6 viable cells/mL. Hepatocyte aliquots of 198 μL were added to wells of a 96-well plate, and test article incubations were initiated by the addition of 2 μL of 100 μM working stocks. Plates were incubated at 37° C. in a 5% CO2 atmosphere at 95% relative humidity on an orbital shaker at 300 rpm. Incubations were performed in duplicate. Following incubation, aliquots of individual reactions were terminated by addition of ACN containing internal standards at 0, 30-, 60-, 90-, 120-, and 240-min. Precipitated protein was pelleted via refrigerated centrifugation. Supernatants were diluted into an equal volume of pure water and mixed well prior to analysis via LC-MS/MS. In vitro intrinsic clearances (CLint) in μL/min/10^6 cells were determined for each incubation from calculated in vitro half-lives determined using a standard log-linear regression approach. In vitro CLint values were scaled up using the following physiological scaling factors: 99×10^6 cells/g human liver and 25.7 g human liver/kg body weight.

Sequence of PARP2 (Q9UGN5 whole entry): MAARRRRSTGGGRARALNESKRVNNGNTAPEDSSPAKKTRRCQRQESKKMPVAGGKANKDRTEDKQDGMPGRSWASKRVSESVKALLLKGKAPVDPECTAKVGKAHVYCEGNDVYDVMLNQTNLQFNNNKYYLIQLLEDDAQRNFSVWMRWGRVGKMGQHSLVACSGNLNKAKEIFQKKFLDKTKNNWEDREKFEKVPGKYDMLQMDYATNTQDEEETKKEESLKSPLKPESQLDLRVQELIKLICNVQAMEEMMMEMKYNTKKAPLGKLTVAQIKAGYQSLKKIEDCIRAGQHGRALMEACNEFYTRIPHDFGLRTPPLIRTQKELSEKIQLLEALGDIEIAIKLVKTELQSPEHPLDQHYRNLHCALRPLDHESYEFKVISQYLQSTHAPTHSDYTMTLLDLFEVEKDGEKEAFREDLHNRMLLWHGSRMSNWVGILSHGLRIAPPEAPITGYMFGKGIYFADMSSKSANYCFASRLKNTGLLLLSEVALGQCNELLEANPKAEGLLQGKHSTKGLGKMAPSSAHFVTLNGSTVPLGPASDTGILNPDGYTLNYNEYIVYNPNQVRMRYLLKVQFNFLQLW
Sequence of PARP1 (P09874 whole entry): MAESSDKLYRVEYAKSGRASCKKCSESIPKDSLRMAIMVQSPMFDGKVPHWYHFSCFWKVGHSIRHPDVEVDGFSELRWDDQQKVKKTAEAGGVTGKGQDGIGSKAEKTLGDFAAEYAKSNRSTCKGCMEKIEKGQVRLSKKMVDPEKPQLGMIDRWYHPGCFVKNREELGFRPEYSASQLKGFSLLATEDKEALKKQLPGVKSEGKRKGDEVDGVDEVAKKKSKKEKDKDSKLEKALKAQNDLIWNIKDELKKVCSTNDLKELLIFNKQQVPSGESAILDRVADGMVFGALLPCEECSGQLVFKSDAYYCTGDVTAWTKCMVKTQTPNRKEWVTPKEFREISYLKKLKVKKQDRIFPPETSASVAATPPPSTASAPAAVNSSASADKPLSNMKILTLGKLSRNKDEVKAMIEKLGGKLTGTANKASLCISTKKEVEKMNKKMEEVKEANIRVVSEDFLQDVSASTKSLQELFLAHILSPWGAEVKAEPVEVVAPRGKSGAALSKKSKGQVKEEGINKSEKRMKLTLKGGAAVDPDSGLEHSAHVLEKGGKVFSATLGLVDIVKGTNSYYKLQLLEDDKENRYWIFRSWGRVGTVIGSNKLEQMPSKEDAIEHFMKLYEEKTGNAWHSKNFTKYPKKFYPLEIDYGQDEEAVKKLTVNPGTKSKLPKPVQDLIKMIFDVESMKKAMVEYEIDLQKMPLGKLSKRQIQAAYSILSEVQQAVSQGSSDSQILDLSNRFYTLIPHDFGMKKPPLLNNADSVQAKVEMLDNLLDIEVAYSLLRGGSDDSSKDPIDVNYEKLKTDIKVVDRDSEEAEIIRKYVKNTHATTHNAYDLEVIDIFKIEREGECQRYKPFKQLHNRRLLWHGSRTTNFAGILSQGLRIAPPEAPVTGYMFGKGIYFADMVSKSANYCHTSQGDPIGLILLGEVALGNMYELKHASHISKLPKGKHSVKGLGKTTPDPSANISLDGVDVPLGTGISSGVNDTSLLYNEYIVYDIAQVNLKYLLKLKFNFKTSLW

SMILES | IC50 (PARP2) [nM] | IC50 (PARP1) [nM] | Papp A→B at 2 h, 5 μM [1] [×10⁻⁶ cm/s] | Papp B→A at 2 h, 5 μM [1] [×10⁻⁶ cm/s] | HLM Clh [2] [mL/min/kg] | HHEP Clh [3] [mL/min/kg] | efflux ratio at 2 h, 5 μM [1]
CNC(=O)c1ccc(N2CCN(Cc3ccc4c([nH]c(=O)c5ccoc54)c3F)CC2)c(F)n1 [Example 6, 6-fluoro-5-[4-({6-fluoro-4-oxo-5H-furo[3,2-c]quinolin-7-yl}methyl)piperazin-1-yl]-N-methylpyridine-2-carboxamide] | > 100000 | 21 |  |  |  |  | 
CNC(=O)c1ccc(N2CCN(Cc3ccc4c([nH]c(=O)c5c(C)cnn54)c3F)CC2)c(F)n1 [Example 23] | > 100000 | 26 |  |  |  |  | 
CNC(=O)c1ccc(N2CCN(Cc3ccc4c([nH]c(=O)c5c(F)cnn54)c3F)CC2)c(F)n1 [Example 28, 5-[4-({3,6-difluoro-4-oxo-5H-pyrazolo[1,5-a]quinoxalin-7-yl}methyl)piperazin-1-yl]-6-fluoro-N-methylpyridine-2-carboxamide] | > 100000 | 10 |  |  |  |  | 
CNC(=O)c1ccc(N2CCN(Cc3ccc4c5c(c(=O)[nH]c4c3F)CCC5)CC2)c(F)n1 [Comp. Ex. 4] |  |  | 11.5 | 14.5 | 11.5 | 14.5 | 
O=C(NCC(F)F)c1ccc(N2CCN(Cc3ccc4c([nH]c(=O)c5ccoc54)c3F)CC2)c(F)n1 [Example 11] | > 100000 | 14 |  |  |  |  | 
O=C(NC1CC1)c1ccc(N2CCN(Cc3ccc4c([nH]c(=O)c5ccnn54)c3F)CC2)c(F)n1 [Example 3] | > 100000 | 22 |  |  |  |  | 
COCCNC(=O)c1ccc(N2CCN(Cc3ccc4c([nH]c(=O)c5cc(C)nn54)c3F)CC2)c(F)n1 [Example 17] | > 100000 | 14 |  |  |  |  | 
CNC(=O)c1ccc(N2CCN(Cc3ccc4c5c(c(=O)[nH]c4c3)CCO5)CC2)c(C)n1 [Comp. Ex. 1, N,6-dimethyl-5-[4-({4-oxo-2H,3H,5H-furo[3,2-c]quinolin-7-yl}methyl)piperazin-1-yl]pyridine-2-carboxamide] |  |  | 2.5 | 26.2 | <4 | <3.3 | 
CNC(=O)c1ccc(N2CCN(Cc3ccc4c([nH]c(=O)c5cnn(C)c54)c3F)CC2)c(F)n1 [Example 19, 6-fluoro-5-[4-({6-fluoro-1-methyl-4-oxo-5H-pyrazolo[4,3-c]quinolin-7-yl}methyl)piperazin-1-yl]-N-methylpyridine-2-carboxamide] | > 100000 | 100 |  |  |  |  | 
O=C(NC1CC1)c1ccc(N2CCN(Cc3ccc4c([nH]c(=O)c5ccoc54)c3F)CC2)c(F)n1 [Example 14] | > 100000 | 10 |  |  |  |  | 
Cc1cc2c(=O)[nH]c3c(F)c(CN4CCN(c5ccc(C(=O)NCC(F)F)nc5F)CC4)ccc3n2n1 [Example 13] | > 100000 | 25 |  |  |  |  | 
CNC(=O)c1ccc(N2CCN(Cc3ccc4c5c(c(=O)[nH]c4c3F)CCO5)CC2)cn1 [Example 26] | > 100000 | 13 |  |  |  |  | 
CNC(=O)c1ccc(N2CCN(Cc3ccc4c([nH]c(=O)c5cn(C)nc54)c3F)CC2)c(F)n1 [Example 20, 6-fluoro-5-[4-({6-fluoro-2-methyl-4-oxo-5H-pyrazolo[4,3-c]quinolin-7-yl}methyl)piperazin-1-yl]-N-methylpyridine-2-carboxamide] | > 100000 | 11 |  |  |  |  | 
O=C(NCC(F)F)c1ccc(N2CCN(Cc3ccc4c5c(c(=O)[nH]c4c3F)CCO5)CC2)c(F)n1 [Example 15] | > 100000 | 12 |  |  |  |  | 
Cc1cc2c(=O)[nH]c3c(F)c(CN4CCN(c5ccc(C(=O)NC6CC6)nc5F)CC4)ccc3n2n1 [Example 4] | > 100000 | 16 |  |  |  |  | 
CNC(=O)c1ccc(N2CCN(Cc3ccc4c5c(c(=O)[nH]c4c3)CCO5)CC2)c(Cl)n1 [Comp. Ex. 2, 6-chloro-N-methyl-5-[4-({4-oxo-2H,3H,5H-furo[3,2-c]quinolin-7-yl}methyl)piperazin-1-yl]pyridine-2-carboxamide] |  |  | 2.4 | 21.9 | 4.2 | 6.6 | 9.3
CNC(=O)c1ccc(N2CCN(Cc3ccc4c([nH]c(=O)c5cc(C)nn54)c3F)CC2)c(F)n1 [Example 5] | > 100000 | 41 |  |  |  |  | 
CNC(=O)c1ccc(N2CCN(Cc3ccc4c([nH]c(=O)n5cccc45)c3F)CC2)c(F)n1 [Example 7, 6-fluoro-5-[4-({7-fluoro-5-oxo-6H-pyrrolo[1,2-c]quinazolin-8-yl}methyl)piperazin-1-yl]-N-methylpyridine-2-carboxamide] | > 100000 | 18 |  |  |  |  | 
CNC(=O)c1ccc(N2CCN(Cc3cc(F)c4c5c(c(=O)[nH]c4c3)COC5)CC2)c(F)n1 [Comp. Ex. 3, 6-fluoro-5-(4-((9-fluoro-4-oxo-1,3,4,5-tetrahydrofuro[3,4-c]quinolin-7-yl)methyl)piperazin-1-yl)-N-methylpicolinamide] |  |  | 0.8 | 5.5 | 7.2 | 7.1 | 7.3
